This note sets out measurements from patent publication US20070292386A9, “Vaccine formulations for intradermal delivery comprising adjuvants and antigenic agents” (priority 2004, published 2007).

First the molecules themselves.
B1: IL-12: heterodimeric cytokine interleukin-12 (protein, UniProt P29459 23-219; P29460 23-328, looked up)
Interleukin-12 subunit alpha: RNLPVATPDPGMFPCLHHSQNLLRAVSNMLQKARQTLEFYPCTSEEIDHEDITKDKTSTVEACLPLELTKNESCLNSRETSFITNGSCLASRKTSFMMALCLSSIYEDLKMYQVEFKTMNAKLLMDPKRQIFLDQNMLAVIDELMQALNFNSETVPQKSSLEEPDFYKTKIKLCILLHAFRIRAVTIDRVMSYLNAS
Interleukin-12 subunit beta: IWELKKDVYVVELDWYPDAPGEMVVLTCDTPEEDGITWTLDQSSEVLGSGKTLTIQVKEFGDAGQYTCHKGGEVLSHSLLLLHKKEDGIWSTDILKDQKEPKNKTFLRCEAKNYSGRFTCWWLTTISTDLTFSVKSSRGSSDPQGVTCGAATLSAERVRGDNKEYEYSVECQEDSACPAAEESLPIEVMVDAVHKLKYENYTSSFFIRDIIKPDPPKNLQLKPLKNSRQVEVSWEYPDTWSTPHSYFSLTFCVQVQGKSKREKKDRVFTDKTSATVICRKNASISVRAQDRYYSSSWSEWASVPCS
B2: IL-7: cytokine interleukin-7 (protein, UniProt P13232 26-177, looked up)
Interleukin-7: DCDIEGKDGKQYESVLMVSIDQLLDSMKEIGSNCLNNEFNFFKRHICDANKEGMFLFRAARKLRQFLKMNSTGDFDLHLLKVSEGTTILLNCTGQVKGRKPAALGEAQPTKSLEENKSLKEQKKLNDLCFLKRLLQEIKTCWNKILMGTKEH

Ends that are not written are not given here.

The subject of this test is influenza antigen (Influenza APR834). The format is in vivo. Also noted: key: greater immune response (as indicated by X) as compared to the inoculums that contained Fluzone alone, or the non-immune inoculums. As to conditions: adjuvant with Fluzone, intradermal, Balb/c mice, one immunization, sera 21 days, vs Fluzone alone.
Consider “Tyr-Leu-Glu-Pro-Gly-Pro-Val-Thr-Ala [Melanonin Peptide 946]”, for which the “Increased Immune Response, Fluzone” value is on record as “X”.
The result for “Interferon-gamma: cytokine, interferon produced by lymphocytes” reads “X”.
Under “N-formyl-NIe Leu-Phe-NIe-Tyr-Lys [Neutrophil Chemo-attractant Peptide]” stands “X”.
Under IL-6: cytokine interleukin 6 stands “X”; under “VGVAPG [Elastin Repeating Peptide, mammalian peptide adjuvant]”, “X”.
For the molecule B1, the “Increased Immune Response, Fluzone” value is given as “X”.
Take B2: the “Increased Immune Response, Fluzone” value is listed as “X”.
